Results reported in ChEMBL document CHEMBL4673209, “Discovery of a novel potent GPR40 full agonist” (Bioorg Med Chem Lett, 2018).
Activity calls are given as the source filed them. The rule behind the calls is not given here.

Columns and labels:
[1] = biological target: Free fatty acid receptor 1 (Rattus norvegicus, UniProt Q8K3T4); assay: Agonist activity at rat GPR40 transfected in HEK293 cells assessed as increase in intracellular calcium level incubated for 1 hr by Fluo-8 dye based fluorescence analysis; type: functional, cell-based
[2] = biological target: T1, Free fatty acid receptor 1 (Homo sapiens, UniProt O14842); assay: Agonist activity at human GPR40 transfected in HEK293 cells assessed as increase in intracellular calcium level incubated for 1 hr by Fluo-8 dye based fluorescence analysis; type: functional, cell-based
[3] = biological target: T1, Free fatty acid receptor 1; assay: Agonist activity at GPR40 in human islets assessed as induction of glucose-stimulated insulin secretion at 10 uM; type: tissue-based; conditions: Pancreatic islet
[4] = biological target: Free fatty acid receptor 1 (Rattus norvegicus) (UniProt Q8K3T4); assay: Agonist activity at GPR40 in rat INS1 (832/13) cells assessed as induction of glucose-stimulated insulin secretion in presence of 10 mM glucose; type: cell-based
Mus musculus [5] = assay: In vivo agonist activity at GPR119 in C57 mouse assessed as induction of GLP-1 secretion at 30 mg/kg; type: functional, organism-based
Mus musculus [6] = assay: In vivo agonist activity at GPR119 in GPR40 knock-out mouse assessed as induction of GLP-1 secretion at 30 mg/kg; type: functional, organism-based
Mus musculus [7] = species on record: Mus musculus; assay: Anti-glycemic activity in C57 mouse assessed as reduction in blood glucose excursion measured for 120 mins by IPGTT; type: functional, organism-based
Rattus norvegicus [8] = assay: Anti-glycemic activity in fasted Sprague-Dawley ZDF rat assessed as reduction in post-prandial hyperglycemia by measuring AUC(0 to 2 hrs) for blood glucose at 3 mg/kg administered for 1 day and measured on day 1 by OGTT; type: functional
Rattus norvegicus [9] = assay: Anti-glycemic activity in fasted Sprague-Dawley ZDF rat assessed as increase in insulin secretion by measuring insulin level in plasma at 10 mg/kg administered 30 mins prior to glucose challenge measured after 140 mins by OGTT; type: functional; conditions: time 170 min, 2.833 h
Mus musculus [10] = assay: Induction of GLP-1 secretion in GPR40 knock-out mouse at 100 mg/kg; type: functional, organism-based
Mus musculus [11] = assay: In vivo agonist activity at GPR40 in C57 mouse assessed as induction of GLP1 secretion at 100 mg/kg; type: functional, organism-based
Rattus norvegicus [12] = assay: Anti-glycemic activity in fasted Sprague-Dawley ZDF rat assessed as reduction in post-prandial hyperglycemia by measuring AUC(0 to 2 hrs) for blood glucose at 10 mg/kg administered daily for 8 days and measured on day 8 by OGTT; type: functional; conditions: time 8 day
Rattus norvegicus [13] = assay: Anti-glycemic activity in fasted Sprague-Dawley ZDF rat assessed as reduction in post-prandial hyperglycemia by measuring AUC(0 to 2 hrs) for blood glucose at 3 mg/kg administered daily for 8 days and measured on day 8 by OGTT; type: functional; conditions: time 8 day
Rattus norvegicus [14] = assay: Anti-glycemic activity in fasted Sprague-Dawley ZDF rat assessed as reduction in post-prandial hyperglycemia by measuring AUC(0 to 2 hrs) for blood glucose at 10 mg/kg administered for 1 day and measured on day 1 by OGTT; type: functional
Mus musculus [15] = species on record: Mus musculus; assay: Anti-glycemic activity in GPR40 knockout mouse assessed as reduction in blood glucose excursion measured for 120 mins by IPGTT; type: functional, organism-based
Rattus norvegicus [16] = assay: Anti-glycemic activity in fasted Sprague-Dawley ZDF rat assessed as increase in insulin secretion by measuring insulin level in plasma at 3 mg/kg administered 30 mins prior to glucose challenge measured after 140 mins by OGTT; type: functional; conditions: time 170 min, 2.833 h

T1 sequence (O14842 whole entry): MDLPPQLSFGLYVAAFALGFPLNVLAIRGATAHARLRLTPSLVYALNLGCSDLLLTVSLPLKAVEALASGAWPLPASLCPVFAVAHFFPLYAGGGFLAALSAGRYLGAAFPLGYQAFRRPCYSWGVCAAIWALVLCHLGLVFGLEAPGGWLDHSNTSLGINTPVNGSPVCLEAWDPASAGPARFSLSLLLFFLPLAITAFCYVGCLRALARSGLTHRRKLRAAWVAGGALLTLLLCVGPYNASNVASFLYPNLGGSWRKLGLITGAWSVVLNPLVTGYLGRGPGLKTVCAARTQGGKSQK
Free fatty acid receptor 1 (Rattus norvegicus, UniProt Q8K3T4), sequence (Q8K3T4 whole entry): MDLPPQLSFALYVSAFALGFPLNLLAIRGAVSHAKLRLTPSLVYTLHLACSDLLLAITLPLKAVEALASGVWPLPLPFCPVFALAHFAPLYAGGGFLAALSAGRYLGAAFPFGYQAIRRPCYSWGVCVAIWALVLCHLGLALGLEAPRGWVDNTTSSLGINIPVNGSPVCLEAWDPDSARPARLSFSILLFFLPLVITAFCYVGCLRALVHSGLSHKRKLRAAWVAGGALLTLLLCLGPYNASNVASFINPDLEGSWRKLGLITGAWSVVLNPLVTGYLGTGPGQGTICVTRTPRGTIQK
Free fatty acid receptor 1 (Rattus norvegicus), sequence (Q8K3T4 whole entry): as above

EC50 [1] | EC50 [2] | Compound | other results
201 nM | – | COc1ccc(F)c(-c2ncc(COc3cccc([C@@H](CC(=O)O)C4CC4)c3)nc2C2=CCCC2(C)C)c1 | –
70.1 nM | 12.4 nM | COc1ccc(F)c(-c2cnc(COc3cccc([C@@H](CC(=O)O)C4CC4)c3)nc2C2=CCCC2(C)C)c1 | –
– | 7.5 nM | COc1ccc(F)c(-c2ncc(COc3cccc([C@@H](CC(=O)O)C4CC4)c3)nc2-c2cc(C)cc(C)c2)c1 | –
– | 4.5 nM | COc1ccc(F)c(-c2ncc(COc3cccc([C@@H](CC(=O)O)C4CC4)c3)nc2N2CC3(CCC3)C2)c1 | –
– | 9.6 nM | COc1ccc(F)c(-c2ncc(COc3cccc([C@@H](CC(=O)O)C4CC4)c3)nc2OCC(C)C)c1 | –
64.4 nM | 21.3 nM | COc1ccc(F)c(-c2ncc(COc3cccc([C@@H](CC(=O)O)C4CC4)c3)cc2C2=CCCC2(C)C)c1 | –
28 nM | 2.5 nM | CCCCc1nc(COc2cccc([C@@H](CC(=O)O)C3CC3)c2)cnc1-c1cc(OC)ccc1F | –
– | 9.4 nM | COc1ccc(F)c(-c2ncc(COc3cccc([C@@H](CC(=O)O)C4CC4)c3)nc2C=C(C)C)c1 | –

Further lines, the molecule ahead of its results:

Compound | EC50 [1] | EC50 [2] | other results
COc1ccc(F)c(-c2cnc(COc3cccc([C@@H](CC(=O)O)C4CC4)c3)cc2C2=CCCC2(C)C)c1 | 46 nM | 11 nM | –
COc1ccc(F)c(-c2ncc(COc3cccc([C@@H](CC(=O)O)C4CC4)c3)nc2CC(C)(C)C)c1 | – | – | EC50 ([2]; hek293): 2 nM
COc1ccc(F)c(-c2ccc(COc3cccc([C@@H](CC(=O)O)C4CC4)c3)cc2C2=CCCC2(C)C)c1 | 11.4 nM | 3.5 nM | Activity ([3]; filed as agonist): Active; Activity ([4]; INS-1 832/13, filed as agonist): Active
COc1cc(-c2ncc(COc3cccc([C@@H](CC(=O)O)C4CC4)c3)nc2C2=CCCC2(C)C)c(F)cn1 | – | 11 nM | –
CC(C)OC(=O)N1CCC(Oc2ncnc3c2CCN3c2ccc(S(C)(=O)=O)cc2F)CC1 | – | – | Activity (Mus musculus [5]): Active; Activity (Mus musculus [6]): Active
COc1ccc(F)c(-c2ccc(COc3cccc([C@@H](CC(=O)O)C4CC4)c3)nc2C2=CCCC2(C)C)c1 | 44.7 nM | 9.4 nM | –
COc1ccc(Cl)cc1C(=O)NCCc1ccc(S(=O)(=O)NC(=O)NC2CCCCC2)cc1 | – | – | Activity (Mus musculus [7]): Active
Cc1cc(OCCCS(C)(=O)=O)cc(C)c1-c1cccc(COc2ccc3c(c2)OC[C@H]3CC(=O)O)c1 [FASIGLIFAM] | – | – | Activity (Rattus norvegicus [8]): 12194 ng/mL.hr; Activity [3]: inactive; Activity ([4]; INS-1 832/13): inactive; Activity (Rattus norvegicus [9]): 19250 ng/mL; Activity (Mus musculus [10]): inactive; Activity (Mus musculus [11]): inactive; Activity (Rattus norvegicus [12]): 135502 ng/mL.hr; Activity (Rattus norvegicus [13]): 20561 ng/mL.hr; Activity (Rattus norvegicus [14]): 59293 ng/mL.hr; Activity (Mus musculus [7]): Active; Activity (Mus musculus [15]): inactive; Activity (Rattus norvegicus [16]): 4020 ng/mL
